From patent US20200377459A1, “CHARGED ION CHANNEL BLOCKERS AND METHODS FOR USE” (President and Fellows of Harvard College, priority 2015, published 2020)
“Also recorded” adds a separate entry of the source.

Experiments:
[1] = tested on: paw incision-induced thermal hyperalgesia; experiment: Paw incision-induced thermal hyperalgesia; assay type: in vivo; settings: rats, intradermal injection into the surgical wound, 1 and 3 hour post-treatment
Protocol: FIGS. 3A-3B are data showing reversal of paw incision-induced thermal hyperalgesia by charged sodium channel blockers. […] The data are means±SEM of 8 rats per group. The statistical comparison with the contralateral paw (*) is indicated by ***P<0.001. All procedures were approved by the Institutional Animal Care and Use Committees. Mice and rats were housed in standard environmental conditions (12-h light/dark cycle; 23° C.; food and water ad libitum) at facilities accredited by the Association for Assessment and Accreditation of Laboratory Animal Care. 8-week old male BALB/c (stock number: 001026) and C57BL/6J (stock number 000664) mice were purchased from Jackson Laboratory and respectively used in allergic airway inflammation (FIG. 5) and pain hypersensitivity model (FIGS. 2A-2D). 6-week old male Sprague-Dawley (stock number: 400) rats, 150±25 grams, were purchased from Charles River laboratory and used to assess pain hypersensitivity (FIG. 3). The compounds were injected in the plantar surface of each animal's right hind paw in 10 μl (mice) or 50 μl (rats) volume of 1:1 emulsion of Complete Freund's Adjuvant (CFA). […] On the 4th day, their thermal nociceptive threshold was evaluated. […] Impact of treatment was analyzed 1 h prior and 1, 3, 6 and 24 h post-treatment. […] With each reading the apparatus was set with a cut-off time of 32 s. […]

[2] = tested on: thermal nociceptive threshold; experiment: Thermal nociceptive threshold after acute intraplantar injection in naive animals; assay type: in vivo, rats; settings: for difference in thermal nociceptive threshold between contralateral and injected paw: rats, acute intraplantar injection 50 μl, 0.5%, no injury
[3] = tested on: allergic airway inflammation induced by Ovalbumin; experiment: Ovalbumin allergic airway inflammation, BALF immune cell counts; assay type: in vivo; settings: OVA-exposed mice, aerosolized 100 μM on day 18, read day 21
Protocol: FIG. 5A-5E are results showing that lung sensory neuron silencing with N-ethyl-etidocaine (Compound 21) reduces allergic airway inflammation. OVA-exposed mice (day 21) develop increases in BALF total (FIG. 5A), and CD45+ cells (FIG. 5B), including eosinophil (FIG. 5C), macrophage (FIG. 5D) and T-cell (FIG. 5E) counts. In comparison to vehicle treatment, the silencing of sensory neurons using aerosolized QX-314 (100 μM, hollow square) or N-ethyl-etidocaine (Compound 21) (100 μM, dark square) decreased these levels. […] Data expressed as mean S.E.M; Two-tailed unpaired Student's t-test (n=8-16 animals/group; 1-2 cohorts). […]
Allergic airway inflammation was studied in an ovalbumin (OVA) based model. […] Drugs were nebulized on day 18 (10:00 am) and inflammation (BALF cell content)/airway hyper-responsiveness were assessed on day 21 (10:00 am). […]
Bronchoalveolar lavage fluid (BALF) cells were re-suspended in FACS buffer (PBS, 2% FCS, EDTA), and incubated with Fc block (0.5 mg/ml, 10 min; BD Biosciences). […] A leukocyte differential count was determined during flow cytometry analysis of cells expressing the common leukocyte antigen CD45 (BD Pharmigen; cat no: 553079). […] Total BAL cell counts were performed using a standard hemocytometer, with absolute cell numbers calculated as total BAL cell number multiplied by the percentage of cell subpopulation as determined by FACS.

| SMILES | thermal hyperalgesia after surgical incision versus contralateral paw [1] | long lasting analgesia in naïve animals ([2]; naïve animals) | difference in thermal nociceptive threshold between contralateral and injected paw [2] | BALF immune cell levels (total, CD45+, eosinophil, macrophage, T-cell) [3] |
| --- | --- | --- | --- | --- |
| CCC[N+](CC)(CC)C(CC)C(=O)Nc1c(C)cccc1C (stereo not shown) [Compound 21, N-ethyl etidocaine] | absent | without long lasting analgesia | no differences | blocked; also recorded: potently reversed; also recorded: decreased; also recorded: tendency toward a greater decrease in comparison to QX-314 |
| CC[N+](CC)(CC)CC(=O)Nc1c(C)cccc1C [QX-314, reference compound] | absent |  | no differences | decreased |
